Test results as given in patent publication US10774071B2, “PD-1/PD-L1 inhibitors” (Gilead Sciences, Inc., priority 2018, dated 2020).
pIC50: −log10 of the molar value. Like-named read-outs stand apart in the source and are kept apart here.

Key:
PD-1/PD-L1 = PD-1/PD-L1 (Homo sapiens (Human), UniProt Q9NZQ7); experiment: PD-1/PD-L1 biochemical protein-protein interaction assay (ALPHA); format: binding; details: read-out: IC50 PD-L1-PD1
PD-L1 = PD-L1 (Homo sapiens (Human), UniProt Q9NZQ7); experiment: PD-L1/PD-L1 dimerization biochemical protein-protein interaction assay (ALPHA); format: binding; details: read-out: AC50 PDL1 Dimer 1 nM
Sequence of PD-L1 (Q9NZQ7 19-238): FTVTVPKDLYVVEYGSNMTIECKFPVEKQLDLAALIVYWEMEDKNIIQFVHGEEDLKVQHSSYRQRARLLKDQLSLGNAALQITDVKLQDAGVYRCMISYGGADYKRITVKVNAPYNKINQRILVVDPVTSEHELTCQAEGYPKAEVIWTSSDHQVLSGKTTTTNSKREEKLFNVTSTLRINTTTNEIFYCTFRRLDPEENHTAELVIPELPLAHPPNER
Sequence of PD-L1 (Q9NZQ7 19-238): as above

[1] = 0.3 nM His tagged PD-L1, 2.5 nM biotinylated Fc-PD-1, Table 3B
[2] = 0.5 nM His tagged PD-L1 and 0.5 nM FLAG tagged PD-L1, Table 4B
[3] = 0.3 nM His tagged PD-L1, 2.5 nM biotinylated Fc-PD-1, readings of 0.064 nM are equal to or less than 0.064 nM
[4] = 0.5 nM His tagged PD-L1 and 0.5 nM FLAG tagged PD-L1, Table 4A

Sequence of PD-1/PD-L1 (Q9NZQ7 19-238): as above

pIC50 (PD-1/PD-L1; [1])	AC50 (PD-L1; [2]) [nM]	pIC50 (PD-1/PD-L1; [3])	AC50 (PD-L1; [4]) [nM]	SMILES
10.19	5.9			COc1nc(-c2cccc(-c3cccc4c3CC[C@@H]4Oc3nc(OC)c(CN(C)CC(=O)O)cc3C(F)(F)F)c2Cl)ccc1CNC[C@@H]1CCC(=O)N1 [B-258]
10.19	21.3			COc1nc(-c2cccc(-c3cccc4c3CC[C@@H]4Oc3nc(OC)c(CNCC(=O)O)cc3C)c2Cl)ccc1CNC[C@@H]1CCC(=O)N1 [B-239]
10.19	6.31			COc1nc(-c2cccc(-c3cccc4c3CC[C@@H]4Oc3nc(OC)c(CNC(C)(C)CC(=O)O)cc3C(F)(F)F)c2Cl)ccc1CNC[C@@H]1CCC(=O)N1 [B-196]
		≥ 10.19	31.8	COc1nc(-c2cccc(-c3cccc4c3CC[C@@H]4Nc3nc(OC)c(CNCC(=O)O)cc3C(F)(F)F)c2Cl)ccc1CNC[C@H]1C[C@](C)(O)C1 [A-84]
		≥ 10.19	5.04	COc1nc(-c2cccc(-c3cccc4c3CC[C@@H]4Nc3nc(OC)c(CN[C@@H](C)C(=O)O)nc3C(F)(F)F)c2Cl)ccc1CNC[C@@H]1CCC(=O)N1 [A-106]
10.19	3.18			COc1nc(-c2cccc(-c3cccc4c3CC[C@@H]4Oc3nc(OC)c(CN4C[C@H]5C[C@H]5[C@H]4C(=O)O)cc3C(F)(F)F)c2Cl)ccc1CNC[C@@H]1CCC(=O)N1 [B-234]
10.17	103			COC(=O)[C@H]1[C@@H]2CN(Cc3cc(Cl)c(O[C@H]4CCc5c(-c6cccc(-c7ccc(CNC[C@@H]8CCC(=O)N8)c(OC)n7)c6Cl)cccc54)nc3OC)C[C@@H]21 [B-94]
		≥ 10.19	8.26	COc1nc(-c2cccc(-c3cccc4c3CC[C@@H]4Nc3nc(OC)c(CN(C)CC(=O)O)nc3C(F)(F)F)c2Cl)ccc1CNC[C@@H]1CCC(=O)N1 [A-34]
		≥ 10.19	7.77	COc1nc(N[C@H]2CCc3c(-c4cccc(-c5ccc(CNC[C@@H]6CCC(=O)N6)c(OCC#N)n5)c4Cl)cccc32)c(C(F)(F)F)cc1CN1CCC[C@@]1(C)C(=O)O [A-27]
10.19	2.42			CC[C@@](C)(NCc1cc(C(F)(F)F)c(O[C@H]2CCc3c(-c4cccc(-c5ccc(CNC[C@@H]6CCC(=O)N6)c(OC)n5)c4Cl)cccc32)nc1OC)C(=O)O [B-235]
10.19	20.2			COc1nc(-c2cccc(-c3cccc4c3CC[C@@H]4Oc3nc(OC)c(CN4CC5(C(=O)O)CCC4CC5)nc3Cl)c2Cl)cnc1CNC[C@@H]1CCC(=O)N1 [B-45]
10.19	10.6			COc1cc(O[C@H]2CCc3c(-c4cccc(-c5ccc(CNC[C@@H]6CCC(=O)N6)c(OC)n5)c4Cl)cccc32)c(C(F)(F)F)cc1CN1CC2CCC1C(C(=O)O)C2 (stereo partly drawn) [B-224]
10.19	1.12			COc1nc(-c2cccc(-c3cccc4c3CC[C@@H]4Oc3nc(OC)c(CNC(C)(C)C(=O)O)cc3C(F)(F)F)c2Cl)ccc1CNC[C@@H]1CCC(=O)N1 [B-12]
		≥ 10.19	79.7	COc1nc(-c2cccc(-c3cccc4c3CC[C@@H]4Nc3nc(OC)c(CN4CC[C@@H](C(=O)O)C4)cc3Cl)c2Cl)ccc1CNC[C@@H]1CCC(=O)N1 [A-8]
10.19	12.5			COc1cc(-c2cccc(-c3cccc4c3CC[C@@H]4Oc3nc(OC)c(CN4CC(C(=O)O)C4)cc3Cl)c2Cl)ccc1CNC[C@@H]1CCC(=O)N1 [B-42]
10.19	0.727			COc1nc(-c2cccc(-c3cccc4c3CC[C@@H]4Oc3nc(OC)c(CN4CC5CCC4(C(=O)O)CC5)cc3C(F)(F)F)c2Cl)ccc1CNC[C@@H]1CCC(=O)N1 [B-134]
9.95	18.7			CNC(=O)CCNCc1cc(Cl)c(O[C@H]2CCc3c(-c4cccc(-c5ccc(CNC[C@@H]6CCC(=O)N6)c(OC)n5)c4Cl)cccc32)nc1OC [B-90]
		9.17	188	COc1nc(-c2cccc(-c3cccc4c3CC[C@@H]4Nc3nc(OC)c(CN4CC(C)(O)C4)cc3Cl)c2Cl)ccc1CNC[C@@H]1CCC(=O)N1 [A-6]
10.19	38.9			COc1nc(O[C@H]2CCc3c(-c4cccc(-c5cc(F)c(CNC[C@@H]6CCC(=O)N6)c(OC)n5)c4Cl)cccc32)c(Cl)cc1CN1CC(C(=O)O)C1 [B-142]
10.19	2.04			COc1cc(O[C@H]2CCc3c(-c4cccc(-c5ccc(CNC[C@@H]6CCC(=O)N6)c(OC)n5)c4Cl)cccc32)c(C(F)(F)F)cc1CNC1(C(=O)O)CC1 [B-220]
10.19	66.4			COc1nc(O[C@H]2CCc3c(-c4cccc(-c5cnc(CNC[C@@H]6CCC(=O)N6)cn5)c4Cl)cccc32)c(Cl)cc1CN1CC[C@@H](C(=O)O)C1 [B-97]
10.12	4.63			COc1nc(-c2cccc(-c3cccc4c3CC[C@@H]4Oc3nc(OC)c(CNC[C@H]4C[C@](C)(O)C4)cc3C(F)(F)F)c2Cl)ccc1CNC[C@@H]1CCC(=O)N1 [B-261]

pIC50 (PD-1/PD-L1; [1])	AC50 (PD-L1; [2]) [nM]	pIC50 (PD-1/PD-L1; [3])	AC50 (PD-L1; [4]) [nM]	SMILES
10.19	48			COc1nc(-c2cccc(-c3cccc4c3CC[C@@H]4Oc3nc(OC)c(CN4CC5(C(=O)O)CCC4CC5)cc3Cl)c2C#N)ccc1CNC[C@@H]1CCC(=O)N1 [B-68]
10.19	43.7			COc1cc(O[C@H]2CCc3c(-c4cccc(-c5ccc(CNC[C@@H]6CCC(=O)N6)c(OC)n5)c4Cl)cccc32)c(Cl)cc1CN1CC2(C(=O)O)CCC1CC2 [B-166]
10.19	17.5			COc1nc(-c2cccc(-c3cccc4c3CC[C@@H]4Oc3nc(OC)c(CN[C@H](C(=O)O)C(C)C)cc3C(F)(F)F)c2Cl)ccc1CN[C@H]1C[C@](C)(O)C1 [B-212]
10.19	19			COc1nc(-c2cccc(-c3cccc4c3CC[C@@H]4Oc3nc(OC)c(CN4CC5(C(=O)O)CCC4CC5)nc3Cl)c2Cl)ccc1CNC[C@@H]1CCC(=O)N1 [B-153]
10.19	35.5			COc1nc(O[C@H]2CCc3c(-c4cccc(-c5ccc(CNC[C@@H]6CCC(=O)N6)c(Cl)c5)c4Cl)cccc32)c(Cl)cc1CNC1(C(=O)O)CC1 [B-116]
		≥ 10.19	38.8	COc1nc(-c2cccc(-c3cccc4c3CC[C@@H]4Nc3nc(OC)c(CN4CC[C@@H](C(=O)O)C4)cc3C(F)(F)F)c2Cl)ccc1CN1CC2(CCC(=O)N2)C1 [A-24]
10.19	19.8			COc1nc(-c2cccc(-c3cccc4c3CC[C@@H]4Oc3nc(OC)c(CN4CC5CC(C(=O)O)C4C5)cc3Cl)c2Cl)ccc1CNC[C@@H]1CCC(=O)N1 (stereo partly drawn) [B-184]
		≥ 10.19	42.7	COC[C@H](NCc1cc(C(F)(F)F)c(N[C@H]2CCc3c(-c4cccc(-c5ccc(CN[C@H]6C[C@](C)(O)C6)c(OC)n5)c4Cl)cccc32)nc1OC)C(=O)O [A-91]
		8.93	180	COc1nc(-c2cccc(-c3cccc4c3CC[C@@H]4Nc3nc(OC)c(CN4CC5(CCC(=O)N5)C4)cc3Cl)c2Cl)ccc1CNC[C@@H]1CCC(=O)N1 [A-7]
		≥ 10.19	16.7	COc1cc(N[C@H]2CCc3c(-c4cccc(-c5ccc(CNC[C@@H]6CCC(=O)N6)c(OC)n5)c4Cl)cccc32)c(C(F)(F)F)cc1CN1CC[C@H](C(=O)O)C1 [A-10]
10.19	18.4			COc1nc(-c2cccc(-c3cccc4c3CC[C@@H]4Oc3nc(OC)c(CN4CCC5(C(=O)O)CC45)cc3Cl)c2Cl)ccc1CNC[C@@H]1CCC(=O)N1 (stereo partly drawn) [B-26]
10.19	10.9			COc1nc(-c2cccc(-c3cccc4c3CC[C@@H]4Oc3nc(OC)c(CN4C[C@H](C)C[C@H]4C(=O)O)cc3Cl)c2Cl)ccc1CNC[C@@H]1CCC(=O)N1 [B-185]
10.19	4.76			COc1nc(-c2cccc(-c3cccc4c3CC[C@@H]4Oc3nc(OC)c(CN[C@H](C(=O)O)C(C)C)cc3C(F)(F)F)c2Cl)ccc1CNC[C@@H]1CCC(=O)N1 [B-270]
10.19	14			COc1nc(-c2cccc(-c3cccc4c3CC[C@@H]4Oc3nc(OC)c(CNC4(C(=O)O)CC4)cc3C)c2Cl)ccc1CNC[C@@H]1CCC(=O)N1 [B-246]
10.19	5.32			COc1nc(O[C@H]2CCc3c(-c4cccc(-c5cnc(CNC[C@@H]6CCC(=O)N6)c(OC)n5)c4Cl)cccc32)c(C(F)(F)F)cc1CNC1(C(=O)O)CC1 [B-225]
10.02	46.4			COc1nc(-c2cccc(-c3cccc4c3CC[C@@H]4Oc3nc(OC)c(CN4CC5(C(=O)O)CCC4CC5)cc3Cl)c2Cl)ccc1CN[C@@H]1CCC[C@@H]1O [B-52]
10.19	18			COc1nc(-c2cccc(-c3cccc4c3CC[C@@H]4Oc3nc(OC)c(CNCC(C)(C)C(=O)O)cc3C(F)(F)F)c2Cl)ccc1CN[C@H]1C[C@](C)(O)C1 [B-252]
		≥ 10.19	34.8	COc1cc(N[C@H]2CCc3c(-c4cccc(-c5ccc(CNC[C@@H]6CCC(=O)N6)c(OC)n5)c4Cl)cccc32)c(C(F)(F)F)cc1CN1CC[C@@H](C(=O)O)C1 [A-11]
10.19	8.73			COc1nc(-c2cccc(-c3cccc4c3CC[C@@H]4Oc3nc(OC)c(CN[C@H](C)CC(=O)O)cc3C(F)(F)F)c2Cl)ccc1CN[C@H]1C[C@](C)(O)C1 [B-253]
		≥ 10.19	15.1	COc1nc(-c2cccc(-c3cccc4c3CC[C@@H]4Nc3nc(OC)c(CNC(C)(C)C(=O)O)cc3C(F)(F)F)c2Cl)ccc1CN[C@H]1C[C@](C)(O)C1 [A-92]
		≥ 10.19	45.4	COc1nc(-c2cccc(-c3cccc4c3CC[C@@H]4Nc3nc(OC)c(CN4CC5(C(=O)O)CCC4CC5)nc3C(F)(F)F)c2Cl)ccc1CNC[C@H]1CCC(=O)N1 [A-62]
		≥ 10.19	106	COc1nc(-c2cccc(-c3cccc4c3CC[C@@H]4Nc3nc(OC)c(CN4CCCC[C@]4(C)C(=O)O)cc3C(F)(F)F)c2Cl)ccc1CN1CC(C)(O)C1 [A-51]

SMILES	pIC50 (PD-1/PD-L1; [1])	AC50 (PD-L1; [2]) [nM]	pIC50 (PD-1/PD-L1; [3])	AC50 (PD-L1; [4]) [nM]
COc1nc(-c2cccc(-c3cccc4c3CC[C@@H]4Oc3nc(OC)c(CN4CC5(C(=O)O)CCC4CC5)cc3Cl)c2Cl)ccc1CNC1CC2CCC1N2C(C)=O (stereo partly drawn) [B-23]	10.19	62.8		
